# Experimental data as given in ChEMBL document CHEMBL6071139, “Recent discovery of natural substances with cathepsin L-inhibitory activity for cancer metastasis suppression” (Eur J Med Chem, 2024).
# How the values were obtained:
# Procathepsin L [1] = biological target: T1, Procathepsin L (Homo sapiens, UniProt P07711); assay: Inhibition of CTSL (unknown origin) using Z-Phe-Arg-AMC as substrate by fluorometric assay
# Procathepsin L [2] = biological target: T1, Procathepsin L; assay: Inhibition of CTSL (unknown origin) using Z-Phe-Arg-AMC as substrate preincubated for 30 mins followed by substrate addition measured after 6 mins by fluorescence based assay
# Procathepsin L [3] = biological target: T1, Procathepsin L; assay: Inhibition of CTSL (unknown origin)
# [4] = Lipophilicity, logP of compound; conditions: octanol/water
# T1 sequence (P07711 whole entry): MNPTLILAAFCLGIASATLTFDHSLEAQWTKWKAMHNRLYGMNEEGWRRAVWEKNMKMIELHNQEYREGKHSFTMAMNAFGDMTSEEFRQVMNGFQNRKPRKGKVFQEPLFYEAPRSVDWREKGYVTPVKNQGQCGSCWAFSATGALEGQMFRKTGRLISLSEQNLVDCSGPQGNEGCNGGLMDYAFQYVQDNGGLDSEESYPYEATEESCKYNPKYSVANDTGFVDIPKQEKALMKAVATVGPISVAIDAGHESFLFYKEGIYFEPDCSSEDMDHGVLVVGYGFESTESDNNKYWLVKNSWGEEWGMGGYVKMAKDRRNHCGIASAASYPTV
Ki (Procathepsin L [3]),IC50 (Procathepsin L [3]),Structure (SMILES),other results
–,–,O=C(O)/C=C/c1ccc(O)cc1O,IC50 (Procathepsin L [1]): 930 µM
–,–,Cc1ccc(S(=O)(=O)N[C@@H](Cc2ccccc2)C(=O)OC[C@H](Cc2ccccc2)NC(=O)c2ccccc2)cc1,IC50 (Procathepsin L [2]): 30.2 µM
0.012 µM,–,CCOC(=O)/C=C/C(=O)[C@H](CC(C)C)NC(=O)[C@H](Cc1ccccc1)NC(=O)OCc1ccccc1,–
–,5.8 µM,O=C(N[C@H](COC(=O)[C@H](Cc1ccccc1)NS(=O)(=O)c1cccc(Br)c1)Cc1ccccc1)c1ccccc1,–
0.0085 µM,–,Cc1ccc(S(=O)(=O)/C=C/C(=O)[C@H](CC(C)C)NC(=O)[C@H](CC(C)C)NC(=O)OCc2ccccc2)cc1,–
0.0011 µM,–,C[C@@H](/C=C/[N+](=O)[O-])NC(=O)[C@H](Cc1c[nH]c2ccccc12)NC(=O)OCc1ccccc1,logP [4]: 1.61
–,6 µM,O=C(N[C@@H](Cc1ccccc1)C(=O)OC[C@H](Cc1ccccc1)NS(=O)(=O)c1ccc(Br)cc1)c1ccccc1,–
0.0039 µM,–,C[C@@H](/C=C/[N+](=O)[O-])NC(=O)[C@H](Cc1ccc([N+](=O)[O-])cc1)NC(=O)OCc1ccccc1,logP [4]: 1.85
–,91.2 µM,O=C(N[C@H](COC(=O)[C@H](Cc1ccccc1)NC(=O)c1ccccc1)Cc1ccccc1)c1ccccc1 [ASPERPHENAMATE],–
